According to patent US11578083B2, “Pyrimidinium compounds and their mixtures for combating animal pests” (BASF SE, priority 2017, dated 2023):

How the values were obtained:
Type in all cases: in vivo
[1] = system: green peach aphid (Myzus persicae); experiment: Test 8 green peach aphid, artificial diet (mixtures)
Excerpt: (§1) For evaluating control of green peach aphid (Myzus persicae) through systemic means the test unit consisted of 96-well-microtiter plates containing liquid artificial diet under an artificial membrane.
(§2) The compounds or mixtures were formulated using a solution containing 75% water and 25% DMSO. Concentrations of formulated compounds or mixtures were pipetted into the aphid diet, using a custom built pipetter, at two replications.
(§3) For experimental mixtures in these tests identical volumes of both mixing partners at the desired concentrations respectively, were mixed together.
(§4) After application, 5-8 adult aphids were placed on the artificial membrane inside the microtiter plate wells. The aphids were then allowed to suck on the treated aphid diet and incubated at 23±1° C., 50±5% RH for 3 days. Aphid mortality and fecundity was then visually assessed.

[2] = system: green peach aphid (Myzus persicae); experiment: Test 2 green peach aphid, artificial diet (mixtures)
Excerpt: as §1, §2, §3, §4

[3] = system: Cowpea aphid (Aphis craccivora); experiment: B.3 Cowpea aphid leaf disk test; conditions: foliar, 120 h, Cowpea aphid, Dose 1 ppm, 5 days, read-out: Mortality %
Description: If not otherwise specified, the test solutions are prepared as follows:
The active compound is dissolved at the desired concentration in a mixture of 1:1 (vol:vol) distilled water: acetone. The test solution is prepared at the day of use.
B.3 Cowpea aphid (Aphis craccivora):
For evaluating control of Cowpea aphid through contact or systemic means the test unit consists of 24-well-microtiter plates containing broad bean leaf disks.
The compounds are formulated using a solution containing 75% v/v water and 25% v/v DMSO. Different concentrations of formulated compounds are sprayed onto the leaf disks at 2.5 μl, using a custom built micro atomizer, at two replications.
After application, the leaf disks are air-dried and 5-8 adult aphids placed on the leaf disks inside the microtiter plate wells. The aphids are then allowed to suck on the treated leaf disks and incubated at about 23±1° C. and about 50±5% relative humidity for 5 days. Aphid mortality and fecundity is then visually assessed.

[4] = system: Rice green leafhopper (Nephotettix virescens); experiment: B.1 Rice green leafhopper, sprayed rice seedlings; conditions: Rice green leafhopper, Dose 1 ppm, after 72 hours, read-out: Mortality %
Description: B.1 Rice Green Leafhopper (Nephotettix virescens):
(§5) Rice seedlings are cleaned and washed 24 hours before spraying. The active compounds are formulated in 50:50 acetone:water (vol:vol), and 0.1% vol/vol surfactant (EL 620) is added. Potted rice seedlings are sprayed with 5 ml test solution, air dried, placed in cages and inoculated with 10 adults. Treated rice plants are kept at about 28-29° C. and relative humidity of about 50-60%. Percent mortality is recorded after 72 hours.

[5] = system: Rice brown plant hopper (Nilaparvata lugens); experiment: B.2 Rice brown plant hopper, sprayed rice seedlings; conditions: Rice brown plant hopper, Dose 1 ppm, after 72 hours, read-out: Mortality %
Description: B.2 Rice Brown Plant Hopper (Nilaparvata lugens):
as §5, with “(vol:vol)” for “(vol:vol),”

[6] = system: Thrips (Dichromothrips corbetti); experiment: B.4 Thrips floral-immersion test; conditions: Dose 10 ppm, 72 hours after treatment, read-out: Mortality %
Description: B.4 Thrips (Dichromothrips Corbetti):
Dichromothrips corbetti adults used for bioassay are obtained from a colony maintained continuously under laboratory conditions. For testing purposes, the test compound is diluted in a 1:1 mixture of acetone:water (vol:vol), plus 0.01% vol/vol Alkamuls® EL 620 surfactant.
Thrips potency of each compound is evaluated by using a floral-immersion technique. Plastic petri dishes are used as test arenas. All petals of individual, intact orchid flowers are dipped into treatment solution and allowed to dry. Treated flowers are placed into individual petri dishes along with about 20 adult thrips. The petri dishes v then covered with lids. All test arenas are held under continuous light and a temperature of about 28° C. for duration of the assay. After 3 days, the numbers of live thrips are counted on each flower, and along inner walls of each petri dish. The percent mortality is recorded 72 hours after treatment.

[7] = system: tobacco budworm (Heliothis virescens); experiment: Test 4 tobacco budworm, insect diet with eggs (mixtures)
Description: (§6) For evaluating control of tobacco budworm (Heliothis virescens) the test unit consisted of 96-well-microtiter plates containing an insect diet and 15-25 H. virescens eggs.
The compounds or mixtures were formulated using a solution containing 75% water and 25% DMSO. Concentrations of formulated compounds or mixtures were sprayed onto the insect diet at 10 μl, using a custom built micro atomizer, at two replications.
as §3
(§7) After application, microtiter plates were incubated at 28±1° C., 80±5% RH for 5 days. Egg and larval mortality was then visually assessed.

[8] = system: brown planthopper (Nilaparvata lugens); experiment: Test 6 brown planthopper, foliar spray (mixtures); conditions: Table 6.1, after 7 days, solo application Pymetrozine, use rate 300 ppm
Description: For evaluating control of brown planthopper (Nilaparvata lugens) by foliar spray method. Clean potted rice seedlings with upper leaf portion cut are properly labeled. Placed three potted rice plants per treatment concentration/combination on top of the rotating disc (270 mm) and sprayed with the 12 mL spray solution. Treated plants are allowed to air-dry in the laboratory for about an hour. After air-drying, covered each treated rice plant. Each treated plant was infested with brown planthoppers using a suction vacuum. Plants are maintained at 27° C.±1° C., 50±5% RH and 24 hours light conditions in a holding room. Percent mortality is recorded 7 days after infestation by counting both the dead and alive brown planthoppers on the plants and on the water.

[9] = system: Greenhouse Whitefly (Trialeurodes vaporariorum); experiment: Test 11 Greenhouse Whitefly, egg plant leaf disk (mixtures); conditions: use rate 2500 ppm
Description: For evaluating control of Greenhouse Whitefly (Trialeurodes vaporariorum) the test unit consisted of 96-well-microtiter plates containing a leaf disk of egg plant leaf disk with white fly eggs.
The compounds or mixtures were formulated using a solution containing 75% water and 25% DMSO. Different concentrations of formulated compounds or mixtures were sprayed onto the insect diet at 2.5 μl, using a custom built micro atomizer, at two replications.
as §3
After application, microtiter plates were incubated at 23±1° C., 65±5% RH for 6 days. Mortality of hatched crawlers was then visually assessed.

[10] = system: boll weevil (Anthonomus grandis); experiment: Test 3 boll weevil, insect diet with eggs (mixtures)
Description: (§8) For evaluating control of boll weevil (Anthonomus grandis) the test unit consisted of 24-well-microtiter plates containing an insect diet and 20-30 A. grandis eggs.
(§9) The compounds or mixtures were formulated using a solution containing 75% water and 25% DMSO. Concentrations of formulated compounds or mixtures were sprayed onto the insect diet at 20 μl, using a custom built micro atomizer, at two replications.
as §3
(§10) After application, microtiter plates were incubated at 23±1° C., 50±5% RH for 5 days. Egg and larval mortality was then visually assessed.

[11] = system: tobacco budworm (Heliothis virescens); experiment: Test 10 tobacco budworm, insect diet with eggs (mixtures); conditions: use rate 2500 ppm
Description: as §6
The compounds or mixtures were formulated using a solution containing 75% water and 25% DMSO. Different concentrations of formulated compounds or mixtures were sprayed onto the insect diet at 10 μl, using a custom built micro atomizer, at two replications.
as §3, §7

[12] = system: boll weevil (Anthonomus grandis); experiment: Test 9 boll weevil, insect diet with eggs (mixtures)
Description: as §8, §9, §3, §10

[13] = system: vetch aphid (Megoura viciae); experiment: Test 7 vetch aphid, leaf disks (mixtures); conditions: use rate 2500 ppm
Description: For evaluating control of vetch aphid (Megoura viciae) through contact or systemic means the test unit consisted of 24-well-microtiter plates containing broad bean leaf disks.
The compounds or mixtures were formulated using a solution containing 75% water and 25% DMSO. Concentrations of formulated compounds or mixtures were sprayed onto the leaf disks at 2.5 μl, using a custom built micro atomizer, at two replications.
as §3
After application, the leaf disks were air-dried and 5-8 adult aphids placed on the leaf disks inside the microtiter plate wells. The aphids were then allowed to suck on the treated leaf disks and incubated at 23±1° C., 50±5% RH for 5 days. Aphid mortality and fecundity was then visually assessed.

For `C[C@@H](NC(=O)C(C#N)C(C)(C)C)c1ccc(Cl)cc1Cl` (stereo partly shown) [Dicyclomet, dicyclomet, reference compound], the Average control % ([1]; Table 8.2, solo application Dicyclomet, use rate 2500 ppm) was 0%.

`N#CCNC(=O)c1cnccc1C(F)(F)F` [Flonicamid, flonicamid, reference compound] showed an Average control % ([2]; Table 2.5, solo application Flonicamid, use rate 2 ppm) of 0%.

`C[n+]1c([O-])c(-c2ccccc2)c(=O)n2c1SC[C@H]2c1cnc(Cl)s1` [I-S-1, S-3-(2-chlorothiazol-5-yl)-8-methyl-7-oxo-6-phenyl-2,3-dihydrothiazolo[3,2-a] pyrimidin-8-ium-5-olate] was tested, and the mortality at 1 ppm [3] was 0%, the mortality at 1 ppm [4] was 0% and the mortality at 1 ppm [5] was 0%. It also gave a mortality at 10 ppm [6] of 0%.

`CC1=NNC(=O)N(/N=C/c2cccnc2)C1` [Pymetrozine, pymetrozine, reference compound] was tested, and the Average control % ([7]; Table 4.1, solo application Pymetrozine, use rate 10 ppm) was 0% and the Average control % [8] was 26%.

With `C[Si](C)(C)CC(O)(Cn1cncn1)c1ccc(F)cc1` (stereo not shown) [Simeconazol, simeconazole, reference compound] the Average control % ([9]; Table 11.1, solo application Simeconazol) was 0%.

With `O=C(NC(=O)c1c(F)cccc1F)Nc1ccc(Oc2ccc(C(F)(F)F)cc2Cl)cc1F` [Flufenoxuron, flufenoxuron, reference compound] the Average control % ([2]; Table 2.2, solo application Flufenoxuron, use rate 0.8 ppm) was 0% and the Average control % ([10]; Table 3.1, solo application Flufenoxuron, use rate 0.8 ppm) was 0%.

`CON=CNC(=O)c1ccc(C2=NOC(c3cc(Cl)cc(Cl)c3)(C(F)(F)F)C2)cc1C` (stereo not shown) [Fluxametamide, fluxametamide, reference compound] showed an Average control % ([10]; Table 3.3, solo application Fluxametamide, use rate 0.4 ppm) of 25%.

`O=c1c(-c2cccc(C(F)(F)F)c2)c([O-])[n+](Cc2cncnc2)c2ccccn12` [Triflumezopyrim, triflumezopyrim, reference compound] showed an Average control % ([2]; Table 2.3, solo application Triflumezopyrim, use rate 0.4 ppm) of 0%.

`CC1(C)C(C=C(Cl)Cl)C1C(=O)OC(C#N)c1cccc(Oc2ccccc2)c1` (stereo not drawn) [Alpha-Cypermethrin, alpha-cypermethrin, reference compound] showed an Average control % ([2]; Table 2.6, solo application Alpha-Cypermethrin, use rate 10 ppm) of 0% and an Average control % ([7]; Table 4.2, solo application Alpha-Cypermethrin, use rate 2 ppm) of 50%.

With spinosad [reference compound] the Average control % ([2]; Table 2.1, solo application Spinosad, use rate 4 ppm) was 0%.

In the case of `COC(=O)N(C(=O)N1CO[C@@]2(C(=O)OC)Cc3cc(Cl)ccc3C2=N1)c1ccc(OC(F)(F)F)cc1` [Indoxacarb, indoxacarb, reference compound], the Average control % ([2]; Table 2.4, solo application Indoxacarb, use rate 2 ppm) is reported as 0%.

Work on `O=C1CCc2cccc3c2N1CC3` [Pyroquilon, pyroquilon, reference compound] yielded an Average control % ([11]; Table 10.2, solo application Pyroquilon) of 0%.

`CC(C)N1C(=O)N(c2ccccc2)CS/C1=N\C(C)(C)C` [Buprofezin, buprofezin, reference compound] was tested, and the Average control % ([9]; Table 11.2, solo application Buprofezin) was 50%.

Work on `Cc1nn(C)c(F)c1C(=O)Nc1ccccc1C(C)CC(C)C` (stereo not shown) [Penflufen, penflufen, reference compound] yielded an Average control % ([12]; Table 9.1, solo application Penflufen, use rate 2500 ppm) of 0%.

Molecule `C=CCOC1=NS(=O)(=O)c2ccccc21` [Probenazole, probenazole, reference compound] has an Average control % ([1]; Table 8.1, solo application Probenazole, use rate 500 ppm) of 0% and an Average control % ([11]; Table 10.1, solo application Probenazole) of 0%.

In the case of `COCC(=O)N(c1c(C)cccc1C)C(C)C(=O)OC` (stereo not shown) [Metalaxyl, metalaxyl, reference compound], the Average control % ([13]; Table 7.2, solo application Metalaxyl) is reported as 0% and the Average control % ([12]; Table 9.2, solo application Metalaxyl, use rate 500 ppm) is reported as 0%.

With `Cc1nn(C)c(Cl)c1C(=O)Nc1cccc2c1C(C)OC2(C)C` (stereo not shown) [Furametpyr, furametpyr, reference compound] the Average control % ([13]; Table 7.1, solo application Furametpyr) was 0%.
